Earlier results in patent US20090285840A1, “METHODS FOR TREATING PATHOLOGICAL NEOVASCULARIZATION” (New York Society for the Ruptured and Crippled Maintaining …, priority 2008, published 2009).

System: human ADAM9 mRNA
Design: concentration or dose not given beside the values
Conditions: percentage inhibition data reported in US 2004/0092466, Example 15; target SEQ ID NO 94; cited from earlier work

Substance	% INHIB [%]
23 (CCTCTTCATCCTTTGCAGTT; listed as DNA, chemistry not given here) [compound 23]	84
24 (GTTTCCATTGGTCCAAATCT; listed as DNA, chemistry not given here) [compound 24]	77
25 (CAAGATTATGACCCAATTCA; listed as DNA, chemistry not given here) [compound 25]	69
26 (GAATATTAAGAAGGCAGTTT; listed as DNA, chemistry not given here) [compound 26]	27
27 (CTGCTTTATTATAGCCATGA; listed as DNA, chemistry not given here) [compound 27]	85
28 (ATGACTGAATAAGACTTATT; listed as DNA, chemistry not given here) [compound 28]	68
29 (TACATTAATGATAACTAAGG; listed as DNA, chemistry not given here) [compound 29]	68
30 (AAGATTTTATAATTGCTCCT; listed as DNA, chemistry not given here) [compound 30]	71
31 (CGATAAATGATGTGCTCAAA; listed as DNA, chemistry not given here) [compound 31]	36
32 (CAGTGATTTGTCCAAACACA; listed as DNA, chemistry not given here) [compound 32]	30
33 (ATTCATTCCAAGATTATGAC; listed as DNA, chemistry not given here) [compound 33]	75
34 (TTAATAGCAAGCTTTGAAAG; listed as DNA, chemistry not given here) [compound 34]	68
35 (GGGTCTGTGGCAAGACAGCT; listed as DNA, chemistry not given here) [compound 35]	65
36 (TCTTTGCTCCACAGGAACAA; listed as DNA, chemistry not given here) [compound 36]	77
37 (CAATGGATGAATTATGAACT; listed as DNA, chemistry not given here) [compound 37]	62
38 (TCCGTATCCTTTAGTCTCAC; listed as DNA, chemistry not given here) [compound 38]	80
39 (TTCCTTCTTTCTCCAGCCTA; listed as DNA, chemistry not given here) [compound 39]	81
40 (GTGAGGGAACTATATAAAGG; listed as DNA, chemistry not given here) [compound 40]	66
41 (AGGAATTAAGTTTCCCTGAG; listed as DNA, chemistry not given here) [compound 41]	74

Substance	% INHIB [%]
42 (AAAATTTTACGATCCATACC; listed as DNA, chemistry not given here) [compound 42]	72
43 (CTGGAACATCTGATCCTAGC; listed as DNA, chemistry not given here) [compound 43]	77
44 (CAAATGTCTCCACAGTGATT; listed as DNA, chemistry not given here) [compound 44]	79
45 (GCTATTGTGAACGAATGTCA; listed as DNA, chemistry not given here) [compound 45]	86
46 (CAAGATTCTAGAGTATGATG; listed as DNA, chemistry not given here) [compound 46]	85
47 (ATCATGTCATACCTTTCCTT; listed as DNA, chemistry not given here) [compound 47]	81
48 (GGGAGGCTCTTCCTCTTCAT; listed as DNA, chemistry not given here) [compound 48]	55
49 (ACTGAAGCTTTCCACACAAA; listed as DNA, chemistry not given here) [compound 49]	52
50 (TCCCACAAATGCCATTCCTG; listed as DNA, chemistry not given here) [compound 50]	78
51 (AGAAAACCATTTCTTCCTTC; listed as DNA, chemistry not given here) [compound 51]	75
52 (ATTATTGGCAGCTGATTAGT; listed as DNA, chemistry not given here) [compound 52]	79
53 (GCACCACATTTTGTGCCTTC; listed as DNA, chemistry not given here) [compound 53]	74
54 (CTGATTAGTCAGTTTTCACA; listed as DNA, chemistry not given here) [compound 54]	85
55 (TCAATGCAGTATTCATTTCA; listed as DNA, chemistry not given here) [compound 55]	49
56 (AAGAAGACCAGAAGTCCGTC; listed as DNA, chemistry not given here) [compound 56]	74
57 (ATTCCTTTGGAGTACCACAG; listed as DNA, chemistry not given here) [compound 57]	81
58 (GGTATCTCTTGTACATTCTC; listed as DNA, chemistry not given here) [compound 58]	18
59 (GGGAACTGCTGAGGTTGCTT; listed as DNA, chemistry not given here) [compound 59]	46
